Assay results taken from ChEMBL document CHEMBL3046368, “Synthesis of benzothiazole derivatives and their biological evaluation as anticancer agents” (2012).
Active and inactive are the calls of the source. The calls are words filed in the database; no cut-off is given here.

What was measured:
[1] = target: T1, Ubiquitin-like modifier-activating enzyme 1 (Homo sapiens) (UniProt P22314); test: Inhibition of ubiquitin displacement on His6-tagged E2 enzyme from His6-tagged UBA1 (unknown origin) at 10 uM after 1.5 hr by SDS-PAGE analysis
T1 sequence (whole entry): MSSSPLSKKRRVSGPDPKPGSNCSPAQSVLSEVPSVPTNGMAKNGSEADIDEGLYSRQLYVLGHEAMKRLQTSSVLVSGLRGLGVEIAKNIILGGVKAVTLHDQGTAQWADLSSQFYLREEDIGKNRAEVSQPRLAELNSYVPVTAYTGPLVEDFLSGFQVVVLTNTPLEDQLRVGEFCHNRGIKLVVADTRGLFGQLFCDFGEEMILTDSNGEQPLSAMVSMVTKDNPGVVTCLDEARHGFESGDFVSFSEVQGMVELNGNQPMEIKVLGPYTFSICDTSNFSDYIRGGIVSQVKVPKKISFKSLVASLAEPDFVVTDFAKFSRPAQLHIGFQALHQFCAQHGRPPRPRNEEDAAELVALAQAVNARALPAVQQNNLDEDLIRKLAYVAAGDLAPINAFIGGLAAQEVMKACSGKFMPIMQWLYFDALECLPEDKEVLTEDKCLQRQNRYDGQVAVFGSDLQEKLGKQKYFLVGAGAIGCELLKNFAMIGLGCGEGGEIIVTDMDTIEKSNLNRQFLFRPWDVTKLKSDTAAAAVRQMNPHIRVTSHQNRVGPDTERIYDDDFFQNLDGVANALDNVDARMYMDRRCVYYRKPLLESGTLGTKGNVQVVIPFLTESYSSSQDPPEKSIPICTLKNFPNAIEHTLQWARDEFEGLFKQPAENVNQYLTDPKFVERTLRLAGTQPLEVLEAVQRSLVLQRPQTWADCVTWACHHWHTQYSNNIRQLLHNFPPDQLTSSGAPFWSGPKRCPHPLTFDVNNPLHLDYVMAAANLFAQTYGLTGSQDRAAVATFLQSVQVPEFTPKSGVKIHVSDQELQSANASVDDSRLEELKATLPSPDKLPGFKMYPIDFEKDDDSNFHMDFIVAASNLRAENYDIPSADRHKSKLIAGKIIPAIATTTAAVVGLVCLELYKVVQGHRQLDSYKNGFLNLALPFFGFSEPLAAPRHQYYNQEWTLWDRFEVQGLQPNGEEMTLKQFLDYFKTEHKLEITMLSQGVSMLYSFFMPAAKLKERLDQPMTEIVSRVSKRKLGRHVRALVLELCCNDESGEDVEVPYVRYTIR

[2] = tested on: T47D; test: Cytotoxicity against Homo sapiens (human) T47D cells after 48 hr by SRB assay; format: functional
[3] = tested on: MCF7; test: Cytotoxicity against Homo sapiens (human) MCF7 cells after 48 hr by SRB assay; format: functional; details: MCF7, 48 h
[4] = tested on: DU-145; test: Cytotoxicity against Homo sapiens (human) DU145 cells after 48 hr by SRB assay; format: functional; details: DU-145, 48 h
[5] = tested on: PC-3; test: Cytotoxicity against Homo sapiens (human) PC3 cells after 48 hr by SRB assay; format: functional; details: PC-3, 48 h
[6] = tested on: CAKI-1; test: Cytotoxicity against Homo sapiens (human) Caki1 cells after 48 hr by SRB assay; format: functional; details: CAKI-1, 48 h
[7] = tested on: OVCAR-5; test: Cytotoxicity against Homo sapiens (human) OVCAR5 cells after 48 hr by SRB assay; format: functional; details: OVCAR-5, 48 h
[8] = tested on: OVCAR-3; test: Cytotoxicity against Homo sapiens (human) OVCAR3 cells after 48 hr by SRB assay; format: functional; details: OVCAR-3, 48 h
[9] = tested on: SK-MEL-2; test: Cytotoxicity against Homo sapiens (human) SK-MEL-2 cells after 48 hr by SRB assay; format: functional; details: SK-MEL-2, 48 h
[10] = tested on: Malme-3M; test: Cytotoxicity against Homo sapiens (human) MALME-3M cells after 48 hr by SRB assay; format: functional
[11] = tested on: SNB-19; test: Cytotoxicity against Homo sapiens (human) SNB19 cells after 48 hr by SRB assay; format: functional; details: SNB-19, 48 h
[12] = tested on: SNB-75; test: Cytotoxicity against Homo sapiens (human) SNB75 cells after 48 hr by SRB assay; format: functional; details: SNB-75, 48 h
[13] = tested on: KM12; test: Cytotoxicity against Homo sapiens (human) KM12 cells after 48 hr by SRB assay; format: functional; details: KM12, 48 h
[14] = tested on: SW-620; test: Cytotoxicity against Homo sapiens (human) SW620 cells after 48 hr by SRB assay; format: functional; details: SW-620, 48 h
[15] = tested on: HCT-116; test: Cytotoxicity against Homo sapiens (human) HCT116 cells after 48 hr by SRB assay; format: functional; details: HCT-116, 48 h
[16] = tested on: HCT-15; test: Cytotoxicity against Homo sapiens (human) HCT15 cells after 48 hr by SRB assay; format: functional; details: HCT-15, 48 h
[17] = tested on: HCC 2998; test: Cytotoxicity against Homo sapiens (human) HCC2998 cells after 48 hr by SRB assay; format: functional; details: HCC 2998, 48 h
[18] = tested on: HOP-92; test: Cytotoxicity against Homo sapiens (human) HOP92 cells after 48 hr by SRB assay; format: functional; details: HOP-92, 48 h
[19] = tested on: SR; test: Cytotoxicity against Homo sapiens (human) SR cells after 48 hr by SRB assay; format: functional
[20] = tested on: MOLT-4; test: Cytotoxicity against Homo sapiens (human) MOLT4 cells after 48 hr by SRB assay; format: functional; details: MOLT-4, 48 h
[21] = tested on: RPMI-8226; test: Cytotoxicity against Homo sapiens (human) RPMI8226 cells after 48 hr by SRB assay; format: functional; details: RPMI-8226, 48 h
[22] = tested on: K562; test: Cytotoxicity against Homo sapiens (human) K562 cells after 48 hr by SRB assay; format: functional; details: K562, 48 h
[23] = Cytotoxicity against Homo sapiens (human) renal cancer cells assessed as cell growth at 10^-5 M after 48 hr by SRB assay relative to control; format: functional; details: Cancer cell lines, read-out: Activity
[24] = Cytotoxicity against Homo sapiens (human) colon cancer cells assessed as cell growth at 10^-5 M after 48 hr by SRB assay relative to control; format: functional; details: Cancer cell lines, read-out: Activity
[25] = tested on: CCRF-CEM; test: Cytotoxicity against Homo sapiens (human) CCRF-CEM cells after 48 hr by SRB assay; format: functional

SMILES	inhibition [1]	GI50 [2]	GI50 [3]	GI50 [4]	GI50 [5]	GI50 [6]	GI50 [7]	GI50 [8]	GI50 [9]	GI50 [10]	GI50 [11]	GI50 [12]	GI50 [13]	GI50 [14]	GI50 [15]	GI50 [16]	GI50 [17]	GI50 [18]	GI50 [19]	GI50 [20]	other results
N#Cc1ccc(NC(=O)Nc2nc3ccc(OC(F)(F)F)cc3s2)cc1	inactive	427 nM	1000 nM	2690 nM	1350 nM	1580 nM	4270 nM	575 nM	1780 nM	851 nM	1510 nM	1820 nM	1020 nM	1620 nM	550 nM	1380 nM	1290 nM	324 nM	741 nM	1860 nM	GI50 [21]: 1000 nM; GI50 [22]: 537 nM; growth at 10 µM [23]: -7.46%; growth at 10 µM [24]: -11.2%; GI50 [25]: 1510 nM
O=C(Nc1ccc(F)cc1)Nc1nc2ccc(OC(F)(F)F)cc2s1	inactive	2630 nM	2140 nM	3470 nM	2820 nM	2290 nM	3630 nM	2240 nM	3090 nM	2950 nM	3720 nM	3470 nM	2690 nM	3720 nM	2950 nM	3020 nM	3890 nM	3890 nM	3720 nM	3090 nM	GI50 [21]: 2510 nM; GI50 [22]: 3550 nM; growth at 10 µM [23]: 15.8%; growth at 10 µM [24]: 0.24%; GI50 [25]: 3980 nM
